The record followed here is patent US20200188511A1, “METHODS OF IMPROVING EFFICACY OF ALLERGY VACCINES” (ANERGIS S.A., priority 2018, published 2020).

For this experiment, the system named is Bet v 1-specific IgE. As to the kind of experiment: In vitro IgE binding (IgE ELISA competition and basophil degranulation assays). Set-up: species or system human. As to the method: These experiments are necessary to ensure that the presentation of the peptides in the Bet v1 COP-Virosomes is not associated with the appearance of unexpected binding to pre-existing Bet v 1-specific IgE.
Bet v 1 at 2 μg/ml was coated overnight on 96-well Nunc Maxisorp® immunoplates (Thermo Fisher Scientific Inc., Wohlen, Switzerland). Sera from birch allergic persons were diluted either ten-fold or twenty-fold (depending on Bet v 1 specific IgE content) and added to serial dilutions of either Bet v 1 or COPs virosomes and incubated for 15 minutes on ice. Serial dilutions of Bet v 1 and COPs virosomes ranged from 10^−6 M to 10^−12 M, final concentration. Serum antigen mixtures were then added to the ELISA plates.
(An ELISA detects its analyte on a solid surface through an enzyme-linked reagent.)

Take “Aller T1: COP peptide of 49 amino acids, aa 2-50 of Bet v 1 (SEQ ID 4) (GVFNYETETTSVIPAARLFKAFILDGDNLFPKVAPQAISSVENIEGNGG)”: the IgE binding entry was “absence of detectable IgE binding”.

For “Aller T3: COP peptide of 55 amino acids, aa 106-160 of Bet v 1 (SEQ ID 4) (VATPDGGSILKISNKYHTKGDHEVKAEQVKASKEMGETLLRAVESYLLAHSDAYN)”, the IgE binding result is listed as “absence of detectable IgE binding”.

B1: Aller T2: COP peptide of 71 amino acids, aa 48-118 of Bet v 1 (SEQ ID 4) (peptide)
chain: NGGPGTIKKISFPEGFPFKYVKDRVDEVDHTNFKYNYSVIEGGPIGDTLEKISNEIKIVATPDGGSILKIS
With B1, the IgE binding entry is given as “absence of detectable IgE binding”.
